Results published in US6562854B2, “Compositions comprising a substituted benzimidazole useful for treating immunomediated inflammatory disorders” (Axys Pharmaceuticals, Inc., priority 1994, dated 2003).
Where a name gives a salt, the structure may show the parent alone.

Assays:
antigen challenged sheep = assay: Sheep Model of Asthma (allergic sheep, antigen challenge); type: in vivo
From the text: The allergic sheep model of asthma was employed for the in vivo evaluation of the compounds of the invention as antiasthmatics. These methods have been published previously (see Abraham et al. (1983) Am. Rev. Respir. Dis. 128:839-844; Allegra et al. (1983) J. Appl. Physiol. 55:726-730; Russi et al. (1985) J. Appl. Physiol. 59:1416-1422; Soler et al. ((1989) J. Appl. Physiol. 67:406-413. Each sheep serves as its own control. Body weights for these animals ranged from 20-50 kilograms.
In these studies, 1 mg of Compound 13 was dissolved in 3 mL distilled water, and the total solution delivered as an aerosol 0.5 hours before, 4 hours after, and 24 hours after antigen challenge (total dose=1 mg; n=3).
Twenty-four hours after antigen challenge in both the control and drug trial, the sheep developed airway hyper-responsiveness. Airway hyper-responsiveness is expressed as PC400, the concentration of carbachol that causes a 400% increase in SRL; therefore, a decrease in PC400 indicates hyper-responsiveness. […] The number of breath units fell to 7 for those animals in the control group.

[1] = test system: tryptase purified from human lung or skin tissue preparations or human mast cell line (HMC-1); assay: In vitro Tryptase Inhibition Assay; type: biochemical; settings: substrate tosyl-Gly-Pro-Lys-p-nitroanilide; Tris-HCl pH 8.2; zinc chloride 150 μM; 1 hour preincubation at room temperature; read-out: Ki (apparent inhibition constant, tryptase inhibitory activity)
Method: Tryptase solution ([…]) was prepared by dissolving tryptase purified from human lung or skin tissue preparations or human mast cell line (HMC-1) or obtained from commercial sources, e.g., ICN Biomeidals, Irvine, Calif., Athens Research & Technology, Athens, Ga., etc., in a solvent mixture comprising: 10 mM 2-N-morpholinoethane sulfonic acid, 2 mM CaCl2, 20% glycerol and 50 µg/mL heparin. Substrate solution containing 2 mM synthetic tripeptide (tosyl-Gly-Pro-Lys-p-nitroanilide) was obtained from Sigma. Test Compound solutions were prepared by diluting a stock solution (1 mg of test Compound in 200 μL of dimethylsulfoxide (DMSO)) by ten-fold into assay buffer (comprising: Tris-HCl (pH 8.2), 50 mM; NaCl, 100 MM; 0.05% polyoxyethylenesorbitan monolaurate (Tween-20®); and zinc chloride, 150 μM) and then making seven additional three-fold dilutions into 10% DMSO in assay buffer.
Aliquots (50 μL) from each of the eight dilutions of test compound solution were added to separate wells in a 96-well U-bottom microtiter plate. Typtase solution (25 μL) was added to each well and the solutions were mixed 1 hour at room temperature. Substrate solution (25 μL) was added to initiate the enzymatic reaction and the microtiter plates were immediately transferred to a UVIMAX Kinetic Microplate Reader (Molecular Devices). The hydrolysis of the chromogenic substrate was followed spectrophotometrically at 405 nanometers for five minutes. Initial velocity measurements were calculated from the progress curves by kinetic analysis program (BatchKi; Petr Kuzmic, University of Wisconsin, Madison, Wis.). Apparent inhibition constants (K) were calculated from the enzyme progress curves using standard mathematical models.

Row | Compound | Ki [1] [nM] | also measured
1 | NCc1ccc2[nH]c(Cc3nc4cc(C(=O)NCCc5cccc6ccccc56)ccc4[nH]3)nc2c1 [Compound 13] | – | PC400 (airway hyper-responsiveness; concentration of carbachol that causes a 400% increase in SRL) (antigen challenged sheep; 24 hours after antigen challenge, 1 mg aerosol 0.5 hours before, 4 hours after and 24 hours after challenge, n=3, baseline 15, control group fell to 7): ~15 breath units; airway function (antigen challenged sheep; antigen challenged sheep, aerosol treatment): significant improvement in airway function; onset of airway hyper-responsiveness (antigen challenged sheep; antigen challenged sheep, aerosol, 24 hours after challenge): block the onset of hyper-responsiveness
2 | N=C(N)Nc1ccc2[nH]c(Cc3nc4ccc(C(=O)NCCc5cccc6ccccc56)cc4n3CCCO)nc2c1 [Compound 138, 2-(5-guanidino-1H-benzoimidazol-2-ylmethyl)-3-(3-hydroxy)propyl-N-(2-naphth-1-ylethyl)-3H-benzoimidazole-5-carboxamide] | 0.2 | –
3 | CC(=N)N1CCc2[nH]c(Cc3nc4ccc(C(=O)NCCc5c(O)ccc6ccccc56)cc4n3C)nc2C1 [Compound 127, 2-[5-(1-iminoethyl)-4,5,6,7-tetrahydro-1H-imidazo[4,5-c]pyridin-2-ylmethyl]-3-methyl-N-[2-(2-hydroxynaphth-1-yl)ethyl]-3H-benzoimidazole-5-carboxamide] | 6 | –
4 | Cn1c(Cc2nc3cc(CN)ccc3[nH]2)nc2cc(C(=O)NCCCN)ccc21 [Compound 12, 2-(5-Aminomethyl-1H-benzoimidazol-2-ylmethyl)-N-(3-aminopropyl)-1-methyl-1H-benzoimidazole-5-carboxamide] | 29000 | –
5 | CC(=N)N1CCc2[nH]c(Cc3nc4ccc(C(=O)NCC(O)c5cccc6ccccc56)cc4n3C)nc2C1 (stereo not shown) [Compound 126, 2-[5-(1-iminoethyl)-4,5,6,7-tetrahydro-1H-imidazo[4,5-c]pyridin-2-ylmethyl]-3-methyl-N-(2-hydroxy-2-naphth-1-ylethyl)-3H-benzoimidazole-5-carboxamide] | 8 | –
6 | NCc1ccc2[nH]c(Cc3nc4cc(C(=O)NCCCCc5ccccc5)ccc4[nH]3)nc2c1 [Compound 1, 2-(5-Aminomethyl-1H-benzoimidazol-2-ylmethyl)-N-(4-phenylbutyl)-1H-benzoimidazole-5-carboxamide trifluoroacetate] | 90 | –
7 | CCOC(=O)c1ccccc1OCCNC(=O)c1ccc2nc(C(C)c3nc4c(F)cc(F)c(F)c4[nH]3)n(C)c2c1 (stereo not shown) [Compound 75, ethyl 2-(2-{2-[1-(4,6,7-trifluoro-1H-benzoimidazol-2-yl)ethyl]-3-methyl-3H-benzoimidazol-5-carbonylamino}ethoxy}benzoate] | 30 | –
8 | 2-(5-Guanidino-1H-benzoimidazol-2-ylmethyl)-N-(2-naphthalen-1-ylethyl)-3-methyl-3H-benzoimidazole-5-carboxyamide [Compound 28] | 0.07 | –
9 | CC(=N)N1CCc2[nH]c(C(C)c3nc4ccc(C(=O)NCCc5cccc6ccccc56)cc4n3C)nc2C1 (stereo not shown) [Compound 169, 2-{1-[5-(1-iminoethyl)-4,5,6,7-tetrahydro-1H-imidazo[4,5-c]pyridin-2-yl]ethyl}-3-methyl-N-(2-naphth-1-ylethyl)-3H-benzoimidazole-5-carboxamide] | 1 | –
10 | CC(c1nc2cc(NC(=N)N)ccc2[nH]1)c1nc2ccc(C(=O)NCCOc3ccccc3C(N)=O)cc2n1C (stereo not shown) [Compound 249, 2-[1-(5-guanidino-1H-benzoimidazol-2-yl)ethyl]-N-[2-(2-carbamoylphenoxy)ethyl]-3-methyl-3H-benzoimidazole-5-carboxamide] | 0.7 | –
11 | CCCOC(=O)c1ccccc1OCCNC(=O)c1ccc2nc(C(C)c3nc4cc(O)ccc4[nH]3)n(C)c2c1 (stereo not shown) [Compound 42, propyl 2-(2-{2-[1-(5-hydroxy-1H-benzoimidazol-2-yl)ethyl]-3-methyl-3H-benzoimidazol-5-ylcarbonylamino}ethoxy)benzoate] | 8 | –
